Experiment: Dissolution of lactam / PVP solid dispersion in water (visual, FIG. 1)
Assay type: physicochemical
Conditions: added to water, amount of lactam equivalent to that in the 1% lactam/PVP solid dispersion
Description: The inventor(s) have shown that solid dispersion of lactam in PVP confers enhanced aqueous solubility to the lactam. […] Note that this example is a proof of concept, and the lactam used was 4-(4-fluorophenyl)-5-methylene-pyrrol-2-one.
Such solid dispersions dissolve rapidly to give clear solutions.

Structure (SMILES): C=C1NC(=O)C=C1c1ccc(F)cc1 [4-(4-fluorophenyl)-5-methylene-pyrrol-2-one]
- dissolution in water (aqueous solubility): does not dissolve
